Measurements published in the kinase profiling compilation of Christmann-Franck et al. (2016).

Key:
ATM (human) = ATM (human) (UniProt Q13315)
MAP3K11 (human) = MAP3K11 (human) (UniProt Q16584)
ABL2 (human) = ABL2 (human) (UniProt P42684)
CDK13 (human) = CDK13 (human) (UniProt Q14004)
MAP3K5 (human) = MAP3K5 (human) (UniProt Q99683)
AAK1 (human) = AAK1 (human) (UniProt Q2M2I8)
FES (human) = FES (human) (UniProt P07332)
STK10 (human) = STK10 (human) (UniProt O94804)
TEC (human) = TEC (human) (UniProt P42680)

Chain of CDK13 (human) (Q14004 whole entry, looked up): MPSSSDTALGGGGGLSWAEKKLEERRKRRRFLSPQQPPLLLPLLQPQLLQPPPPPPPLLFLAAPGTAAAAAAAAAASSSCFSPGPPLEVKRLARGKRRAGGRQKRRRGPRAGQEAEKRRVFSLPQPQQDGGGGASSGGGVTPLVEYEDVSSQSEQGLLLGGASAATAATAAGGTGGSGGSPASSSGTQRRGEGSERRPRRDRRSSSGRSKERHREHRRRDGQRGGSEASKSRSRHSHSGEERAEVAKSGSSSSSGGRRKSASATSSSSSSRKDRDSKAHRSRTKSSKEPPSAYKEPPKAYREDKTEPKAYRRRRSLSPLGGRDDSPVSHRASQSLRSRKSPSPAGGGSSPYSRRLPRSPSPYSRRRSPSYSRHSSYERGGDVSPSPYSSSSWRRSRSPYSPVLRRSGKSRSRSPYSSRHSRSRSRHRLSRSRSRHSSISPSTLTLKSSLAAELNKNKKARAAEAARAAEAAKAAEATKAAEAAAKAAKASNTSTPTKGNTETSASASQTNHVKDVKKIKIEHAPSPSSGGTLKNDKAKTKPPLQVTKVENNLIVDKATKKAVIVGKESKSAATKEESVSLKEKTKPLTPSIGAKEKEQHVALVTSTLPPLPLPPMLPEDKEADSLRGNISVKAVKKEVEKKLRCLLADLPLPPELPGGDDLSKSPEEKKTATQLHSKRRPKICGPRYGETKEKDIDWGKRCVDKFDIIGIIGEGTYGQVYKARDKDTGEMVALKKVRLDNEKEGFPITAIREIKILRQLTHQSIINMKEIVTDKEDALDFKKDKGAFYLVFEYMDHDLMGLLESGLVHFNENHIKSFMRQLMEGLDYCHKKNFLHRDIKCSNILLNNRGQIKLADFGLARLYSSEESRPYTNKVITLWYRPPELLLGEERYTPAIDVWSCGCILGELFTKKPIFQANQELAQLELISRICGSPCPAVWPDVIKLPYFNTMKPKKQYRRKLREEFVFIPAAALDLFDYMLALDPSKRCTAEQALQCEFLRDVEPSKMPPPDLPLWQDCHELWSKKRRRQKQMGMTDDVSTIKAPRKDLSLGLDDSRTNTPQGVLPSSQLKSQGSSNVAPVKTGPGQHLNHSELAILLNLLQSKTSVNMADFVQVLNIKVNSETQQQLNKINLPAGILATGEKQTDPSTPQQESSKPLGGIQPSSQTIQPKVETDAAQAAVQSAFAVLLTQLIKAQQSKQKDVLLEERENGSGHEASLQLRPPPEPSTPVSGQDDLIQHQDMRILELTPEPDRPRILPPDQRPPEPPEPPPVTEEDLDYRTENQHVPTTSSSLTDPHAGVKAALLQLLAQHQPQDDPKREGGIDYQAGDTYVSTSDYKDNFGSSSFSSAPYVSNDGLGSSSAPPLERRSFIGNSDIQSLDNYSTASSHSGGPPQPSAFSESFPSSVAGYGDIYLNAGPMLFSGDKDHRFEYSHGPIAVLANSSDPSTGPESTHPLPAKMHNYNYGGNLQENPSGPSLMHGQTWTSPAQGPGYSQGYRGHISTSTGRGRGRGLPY
Chain of ATM (human) (Q13315 whole entry, looked up): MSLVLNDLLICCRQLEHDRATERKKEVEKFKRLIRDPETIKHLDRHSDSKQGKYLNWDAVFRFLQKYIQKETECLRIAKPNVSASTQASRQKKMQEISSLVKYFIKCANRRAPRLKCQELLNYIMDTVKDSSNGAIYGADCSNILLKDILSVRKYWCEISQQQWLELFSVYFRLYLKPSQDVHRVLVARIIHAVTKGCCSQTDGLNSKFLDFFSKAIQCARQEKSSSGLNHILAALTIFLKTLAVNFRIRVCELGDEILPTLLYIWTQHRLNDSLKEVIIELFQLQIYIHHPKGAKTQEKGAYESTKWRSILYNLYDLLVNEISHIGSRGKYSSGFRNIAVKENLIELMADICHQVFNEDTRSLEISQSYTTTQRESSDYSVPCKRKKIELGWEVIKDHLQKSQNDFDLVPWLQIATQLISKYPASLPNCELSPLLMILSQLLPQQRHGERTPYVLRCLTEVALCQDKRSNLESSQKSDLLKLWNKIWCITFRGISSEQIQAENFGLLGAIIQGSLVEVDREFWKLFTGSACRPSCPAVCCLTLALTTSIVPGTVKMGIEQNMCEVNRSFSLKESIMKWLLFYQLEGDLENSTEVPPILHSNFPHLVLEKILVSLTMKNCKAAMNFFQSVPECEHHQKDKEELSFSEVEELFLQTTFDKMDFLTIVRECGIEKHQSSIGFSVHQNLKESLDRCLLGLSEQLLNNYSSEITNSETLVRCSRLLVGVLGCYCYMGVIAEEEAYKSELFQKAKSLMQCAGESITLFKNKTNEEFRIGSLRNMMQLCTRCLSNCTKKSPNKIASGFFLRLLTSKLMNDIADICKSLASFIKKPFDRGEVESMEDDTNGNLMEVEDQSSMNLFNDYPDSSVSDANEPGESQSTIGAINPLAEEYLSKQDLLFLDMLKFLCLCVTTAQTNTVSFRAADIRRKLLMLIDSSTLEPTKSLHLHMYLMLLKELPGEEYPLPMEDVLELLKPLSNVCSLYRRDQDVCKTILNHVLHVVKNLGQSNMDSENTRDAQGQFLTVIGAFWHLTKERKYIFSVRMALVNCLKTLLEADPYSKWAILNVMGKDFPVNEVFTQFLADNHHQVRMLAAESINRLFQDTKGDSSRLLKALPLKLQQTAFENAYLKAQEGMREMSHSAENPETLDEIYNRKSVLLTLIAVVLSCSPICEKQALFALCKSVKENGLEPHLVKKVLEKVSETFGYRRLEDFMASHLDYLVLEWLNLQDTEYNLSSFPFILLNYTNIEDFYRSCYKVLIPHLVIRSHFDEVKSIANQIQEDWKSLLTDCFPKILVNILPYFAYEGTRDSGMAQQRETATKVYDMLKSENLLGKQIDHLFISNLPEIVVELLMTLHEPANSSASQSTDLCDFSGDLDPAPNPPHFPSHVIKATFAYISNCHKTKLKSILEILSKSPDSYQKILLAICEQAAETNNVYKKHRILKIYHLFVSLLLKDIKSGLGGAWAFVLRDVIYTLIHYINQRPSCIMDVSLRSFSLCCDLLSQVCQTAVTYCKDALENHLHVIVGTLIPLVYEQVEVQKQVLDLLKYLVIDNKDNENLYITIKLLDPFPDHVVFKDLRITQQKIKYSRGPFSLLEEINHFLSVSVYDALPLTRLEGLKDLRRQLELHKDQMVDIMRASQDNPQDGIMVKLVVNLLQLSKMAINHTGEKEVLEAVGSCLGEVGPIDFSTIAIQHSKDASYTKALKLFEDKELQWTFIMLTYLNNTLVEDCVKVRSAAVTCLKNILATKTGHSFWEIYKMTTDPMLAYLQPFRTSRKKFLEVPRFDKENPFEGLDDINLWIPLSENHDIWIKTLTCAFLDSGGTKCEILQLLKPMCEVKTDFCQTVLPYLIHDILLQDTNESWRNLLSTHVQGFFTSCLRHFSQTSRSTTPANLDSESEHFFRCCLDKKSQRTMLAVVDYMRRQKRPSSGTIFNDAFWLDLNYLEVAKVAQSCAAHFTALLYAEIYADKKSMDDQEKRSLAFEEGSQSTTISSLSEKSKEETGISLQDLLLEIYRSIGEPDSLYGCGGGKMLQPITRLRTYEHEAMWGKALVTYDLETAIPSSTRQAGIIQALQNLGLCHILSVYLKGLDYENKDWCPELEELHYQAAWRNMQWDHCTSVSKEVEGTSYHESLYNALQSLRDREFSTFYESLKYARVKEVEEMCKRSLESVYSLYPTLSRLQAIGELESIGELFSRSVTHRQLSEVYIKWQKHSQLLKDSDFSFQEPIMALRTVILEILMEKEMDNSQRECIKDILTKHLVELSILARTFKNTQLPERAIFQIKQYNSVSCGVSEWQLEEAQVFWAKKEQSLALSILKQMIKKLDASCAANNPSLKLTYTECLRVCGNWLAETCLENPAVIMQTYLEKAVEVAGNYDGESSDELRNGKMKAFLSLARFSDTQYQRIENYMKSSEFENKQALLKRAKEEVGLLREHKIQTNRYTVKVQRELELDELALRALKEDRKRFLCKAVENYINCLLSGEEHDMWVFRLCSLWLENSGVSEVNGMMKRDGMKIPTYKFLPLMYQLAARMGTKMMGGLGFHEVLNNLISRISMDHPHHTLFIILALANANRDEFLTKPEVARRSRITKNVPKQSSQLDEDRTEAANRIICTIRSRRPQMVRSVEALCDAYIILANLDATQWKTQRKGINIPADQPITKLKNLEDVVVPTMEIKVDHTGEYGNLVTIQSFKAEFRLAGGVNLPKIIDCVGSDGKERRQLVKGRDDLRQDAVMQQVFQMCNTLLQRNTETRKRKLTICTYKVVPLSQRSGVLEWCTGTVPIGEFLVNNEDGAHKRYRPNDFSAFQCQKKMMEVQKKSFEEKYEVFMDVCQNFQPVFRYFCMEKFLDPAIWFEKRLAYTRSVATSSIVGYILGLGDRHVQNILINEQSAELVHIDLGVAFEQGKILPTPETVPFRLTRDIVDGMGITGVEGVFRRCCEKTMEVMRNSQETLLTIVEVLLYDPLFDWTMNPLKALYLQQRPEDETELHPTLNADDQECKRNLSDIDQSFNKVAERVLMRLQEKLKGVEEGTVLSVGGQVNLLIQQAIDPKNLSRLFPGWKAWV

CN1CC[C@H](c2c(O)cc(O)c3c(=O)cc(-c4ccccc4Cl)oc23)[C@H](O)C1
IC50 (ATM (human)): > 10 µM
IC50 (MAP3K11 (human)): > 10 µM
IC50 (ABL2 (human)): > 10 µM
IC50 (CDK13 (human)): 4.4 µM
IC50 (MAP3K5 (human)): > 10 µM
IC50 (AAK1 (human)): > 10 µM
IC50 (FES (human)): > 10 µM
IC50 (STK10 (human)): > 10 µM
IC50 (TEC (human)): > 10 µM
